According to patent US20230104671A1, “METHODS AND COMPOSITIONS FOR TREATING CARDIOMYOPATHY AND HEART FAILURE” (Ann and Robert H. Lurie Children's Hospital of Chicago, priority 2021, published 2023):

System: Egln1^Tie2Cre mice
Assay: C76 treatment of Egln1Tie2Cre mice: LV hypertrophy and cardiac fibrosis
Type: in vivo
Settings: 3 week-old Egln1^Tie2Cre mice treated for 11 weeks
Procedure: Egln1^Tie2Cre mice, Egln1/Hif1a^Tie2Cre and Egln1/Hif2a^Tie2Cre double knockout mice were generated as described previously^16. Egln1^EndoCreERT2 mice were generated by crossing Egln1 floxed mice with EndoSCL-CreERT2 transgenic mice expressing the tamoxifen-inducible Cre recombinase under the control of the 5′ endothelial enhancer of the stem cell leukemia locus^23. At 8 weeks of age, Egln1^EndoCreERT2 and Egln1^f/f mice were treated with 2 mg tamoxifen intraperitoneally for 5 days to induced Egln1 deletion only in ECs. Mice were scarified at the age of ˜9 months. Both male and female mice were used in these studies. The use of animals was in compliance with the guidelines of the Animal Care and Use Committee of the Northwestern University and of the University of Arizona.
For Wheat Germ Agglutinin (WGA) staining, WGA conjugated with FITC or WGA conjugated with Alexa 647 were stained with cryosectioned slides at room temple for 10 mins.
For histological assessment, hearts were harvested and washed with PBS, followed by fixation in 4% formalin and dehydrated in 70% ethanol. After paraffin processing, the tissues were cut into semi-thin […] thick sections. Sections were stained with H & E staining or Masson's trichrome kit as a service of charge at Core Facility.
To assess the therapeutic potential of HIF-2α inhibition for cardiomyopathy, we treated 3 week-old Egln1^Tie2Cre mice with the HIF-2α translation inhibitor C76^31,35 for 11 weeks.

Compound: COC(=O)c1sccc1N/N=C(\C#N)S(C)(=O)=O [C76, methyl 3-[(2E)-2-[cyano(methylsulfonyl)methylidene]hydrazinyl]thiophene-2-carboxylate]
- cardiomyocyte surface area assessed by WGA staining (FIGS. 10B and 10C): significantly attenuated
- perivascular fibrosis by trichrome staining (FIGS. 10D and 10E): significantly attenuated
- LV/BW ratio (LV hypertrophy) (compared to vehicle treatment, cardiac dissection (FIG. 10A)): decreased
